The values below are quoted from earlier work in patent US6602892B1, “Methods for nicotine replacement dosage determination” (priority 1993, dated 2003).

Structures are written as SMILES.

The conditions of the data set: in vivo.

For the compound `CN1C(=O)CC[C@H]1c1cccnc1` [cotinine], the half life result is on record as “about 20 hours”.

Take `CN1CCCC1c1cccnc1` (centres unmarked) [nicotine]: the half life entry is on record as “two”.
